Where two headings read alike, the source gives them in different places.
Key:
[1] = in vitro; conditions: human, hepatocytes; for half-life at 1 µM: t½
Protocol: (§1) In each assay, the amount of test compound remaining at each time point was analysed by LC-MS/MS.
(§2) The final incubation volume was 500 µL. […] A positive control compound, ethoxycoumarin, for CYP1A2 (as CYP1A2 substrate) was included. […] The reactions were stopped by transferring 50 µL of incubate to 100 µL acetonitrile containing internal standard at the appropriate time points (0, 5, 10, 20, 40 and 60 min). The termination plates were centrifuged at 2500 rpm at 4° C. for 30 min to precipitate the protein.
(§3) From a plot of In peak area ratio (compound peak area/internal standard peak area) against time, the gradient of the line was determined. Subsequently, half-life (t½) and intrinsic clearance (CLint) were calculated using the equations below: […]

[2] = tested on: human cryopreserved hepatocytes; assay: in vitro; conditions: for decrease of flubendazole metabolism in the presence of the inhibitor: cryopreserved human hepatocytes, 1 µM flubendazole, over all inhibitor concentrations tested; for class of CYP1A2 inhibitor of flubendazole metabolism: human hepatocytes ex vivo
Protocol: as §1, §2, §3

[3] = humans, cited from earlier work
[4] = tested on: human liver microsomes; conditions: cited from earlier work

| hepatocyte CLint at 1 µM ([1]; CLint) | half-life at 1 µM [1] | SMILES | decrease of flubendazole metabolism in the presence of the inhibitor [2] | class of CYP1A2 inhibitor of flubendazole metabolism [2] | other results |
| --- | --- | --- | --- | --- | --- |
| 136 ± 8.14 µL/min/1e6 cells | 10.2 min | O=c1ccc2ccc(O)cc2o1 [Umbelliferone, umbelliferone] |  |  | hepatocyte CLint at 1 µM ([1]; intrinsic clearance): 129 ± 2.93 µL/min/1e6 cells; CLint ([2]; human, hepatocytes, 1 µM): 131±9.59 µL/min/10^6 cells; t½ ([2]; human, hepatocytes, 1 µM): 10.5 min |
| 25.4 µL/min/1e6 cells | 54.5 min | CCOc1ccc2ccc(=O)oc2c1 |  |  |  |
|  |  | COCCCC/C(=N\OCCN)c1ccc(C(F)(F)F)cc1 [Fluvoxamine, fluvoxamine] | at least 2.2 fold | strong (inhibits intrinsic clearance (CLint) of flubendazole in human hepatocytes ex vivo by ≥five-fold) |  |
|  |  | Cn1c(=O)c2c(ncn2C)n(C)c1=O [caffeine] |  |  | elimination half-life ([3]; with furafylline): 50 h; elimination half-life ([3]; without furafylline): 5 to 7 h |
|  |  | Cc1nc2c([nH]1)c(=O)n(C)c(=O)n2Cc1ccco1 [Furafylline, furafylline] | at least 4.2 fold | strong (inhibits intrinsic clearance (CLint) of flubendazole in human hepatocytes ex vivo by ≥five-fold) | increase in elimination half-life of caffeine ([3]; Tarrus et al., 1987): 7-10 fold |
|  |  | CCC[S+]([O-])c1ccc2[nH]c(NC(=O)OC)nc2c1 (stereo not drawn) [Ricobendazole, albendazole sulfoxide] |  |  | turnover in human liver microsomes [4]: low turnover |
